Experimental data published in patent US20220274938A1, “5-[(1S)-1-(4-BROMOPHENOXY)ETHYL]-2H-TETRAZOLE DERIVATIVES AND RELATED COMPOUNDS AS CLC-1 ION CHANNEL INHIBITORS FOR TREATING NEUROMUSCULAR DISORDERS” (NMD PHARMA A/S, priority 2019, published 2022).

Key:
Type in all cases: cell-based
human CIC-1 channels = biological target: T1, human CIC-1 channels (Homo sapiens, UniProt P35523); test: Automated patch-clamp on the human isoform of CIC-1 expressed in CHO cells; details: compound added to the intracellular solution vs control cell patches, positive shift reflects inhibition
T1 construct: host or cells: CHO (Chinese hamster ovary) cells, cryopreserved, used directly after thawing
Method: The investigatory goal of these experiments was to evaluate how compounds affect the open probability and current amplitude of human CIC-1 channels expressed in CHO cells. Experiments were performed using an automated patch clamp system that allowed high throughput testing of whole cell patches together with both intracellular and extracellular addition of compound.
Automated whole cell patch clamp experiments were performed with the Qpatch 16 system (Sophion Bioscience, Ballerup, Denmark) at room temperature. Data acquisition and analysis were performed in the Qassay software (ver. 5.6, Odense).
To obtain tail currents, the membrane potential was stepped to −100 mV after each test voltage for 300 ms and then relaxed to −30 mV for 2 sec between sweeps (FIG. 3). I/V relationships for whole cell instant and steady state current amplitudes were obtained by plotting average current densities at the beginning and at the end of the 300 ms step against the membrane potential (FIG. 4).
In order to determine the relative overall open probability (Po), the instantaneous tail currents were normalized to the maximal tail current obtained following the most positive voltage step and plotted against the test voltage. Plots of normalized tail currents from each whole cell patch were then fitted to a Boltzmann function allowing determination of half activation voltages (V1/2, FIG. 5).
Osmolality adjusted to ˜320 using sucrose. Intracellular solutions contained: 80 mM CsF, 60 mM CsCl, 5/1 mM KOH/EGTA, 10 mM HEPES, 10 mM NaCl, pH adjusted to 7.2 with NaOH (2 M). Osmolality adjusted to ˜320 mOsm using sucrose.
Cells used in patch clamp experiments were Chinese hamster ovary cells (CHO) constitutively expressing human CIC-1 channels. The amino acid sequence encoded by the cDNA used to create this cell line was identical to the translated sequence for GenBank accession number NM_000083.2. Cells were produced by Charles River (Catalogue CT6175, Cleveland Ohio, USA) in a cryopreserved format. Experiments were performed on the cells directly after thawing (3×10^6 cells used in each experiment).
To evaluate the compound effect on CIC-1, when applied directly to the intracellular side of the cell membrane, the half activation voltage, V1/2, was determined from whole cell patches with compound added to the intracellular solution and then compared to V1/2 determined from control cell patches with only vehicle added to the intracellular solution. Additionally, the effect of extracellular added compound was evaluated by determine V1/2 and steady state current amplitudes before and after exchanging the extracellular solution to contain compound.
The difference in half activation voltage of CIC-1 channels, ΔV1/2, was determined as the difference between the cell patches treated intracellularly with compound and control cells patches and is reported in Table 4 below. A positive shift in ΔV1/2 is reflecting CIC-1 channel inhibition by the tested compound. P-values of <0.05 is considered significant.

CIC-1 ion channel = biological target: T2, CIC-1 ion channel (Rattus norvegicus, UniProt P35524); test: Electrophysiological measurement (Gm, three micro-electrodes) of compound inhibition of CIC-1 in rat soleus muscle fibres; details: approx. 30° C., four increasing compound concentrations, read-out: EC50 (inhibition of CIC-1 ion channel, reduction of Gm)
T2 construct: CIC-1 channels in native tissue of rat skeletal muscle fibres; from tissue; host or cells: whole soleus muscle of 12-14 week old Wistar rats
T2 sequence (P35524 1-994): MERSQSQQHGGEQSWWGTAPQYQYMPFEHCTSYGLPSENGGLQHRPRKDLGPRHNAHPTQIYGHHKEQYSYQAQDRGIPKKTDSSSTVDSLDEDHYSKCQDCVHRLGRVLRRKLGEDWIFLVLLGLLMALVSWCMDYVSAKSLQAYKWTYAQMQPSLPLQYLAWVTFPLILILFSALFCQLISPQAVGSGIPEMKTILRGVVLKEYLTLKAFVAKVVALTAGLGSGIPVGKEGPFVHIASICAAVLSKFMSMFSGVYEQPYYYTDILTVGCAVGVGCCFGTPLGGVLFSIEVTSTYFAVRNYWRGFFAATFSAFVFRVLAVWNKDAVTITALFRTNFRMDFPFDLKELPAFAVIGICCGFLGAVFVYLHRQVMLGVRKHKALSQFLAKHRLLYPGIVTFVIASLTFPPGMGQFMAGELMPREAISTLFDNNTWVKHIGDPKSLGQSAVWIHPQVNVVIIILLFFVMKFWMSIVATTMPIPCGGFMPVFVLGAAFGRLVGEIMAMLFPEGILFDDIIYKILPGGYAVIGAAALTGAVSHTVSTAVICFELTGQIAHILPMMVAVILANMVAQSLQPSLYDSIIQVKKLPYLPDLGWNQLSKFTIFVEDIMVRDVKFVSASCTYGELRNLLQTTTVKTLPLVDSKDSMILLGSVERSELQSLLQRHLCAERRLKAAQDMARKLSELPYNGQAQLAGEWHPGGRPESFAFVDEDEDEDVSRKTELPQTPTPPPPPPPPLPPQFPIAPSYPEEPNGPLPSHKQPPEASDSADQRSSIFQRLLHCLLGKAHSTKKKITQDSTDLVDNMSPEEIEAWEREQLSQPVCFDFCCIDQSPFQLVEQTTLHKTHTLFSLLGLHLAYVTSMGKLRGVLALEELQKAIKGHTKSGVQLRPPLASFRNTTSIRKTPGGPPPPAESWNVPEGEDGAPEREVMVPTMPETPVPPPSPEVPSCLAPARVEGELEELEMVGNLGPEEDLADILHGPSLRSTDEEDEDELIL
Source text: FIG. 1. […] Please note that the drawing illustrates only the impaled fibre although it is part of an intact muscle that contains many such fibres. All electrodes recorded the membrane potential of the fibre and the two peripheral electrodes were used to inject current (−30 nA, 50 ms). The electrodes were inserted with known inter-electrode distances (X1, X2 and X3). After insertion, current was passed first via the V1 electrode and then via the V3 electrode. The resulting deflections in the membrane voltage were measured by the other electrodes. The steady state deflections in membrane potential were measured and divided by the magnitude of the injected current (−30 nA) to obtain transfer resistances. These were next plotted against inter-electrode distances, and fitted to an exponential function (Panel B), from which Gm could be calculated using linear cable theory. The approach described in panel A and B, was repeated for several muscle fibres in the muscle during exposure at increasing concentrations of compound E-8, with approx. 10 fibres at each concentration. Average Gm at each concentration was plotted as a function of compound concentration in panel C, and fitted to a 4-parameter sigmoidal function from which the EC50 value for the compound was obtained (dashed line)
Apparent CIC-1 affinity was reported by the concentration of compound at which 50% of the compound's full inhibition of CIC-1 was observed (EC50).
CIC-1 Cl^− ion channels generate around 80% of the total membrane conductance (Gm) in resting skeletal muscle fibres of most animals including rat and human (Bretag, A H. Muscle chloride channels. Physiological Reviews, 1987, 67, 618-724). […] CIC-1 inhibition would in such recordings be reflected by a reduction of Gm.
Experimentally, Gm was measured in individual fibres of whole rat soleus muscles using a three micro-electrodes technique described in this example and in full detail elsewhere (Riisager et al., Determination of cable parameters in skeletal muscle fibres during repetitive firing of action potentials. Journal of Physiology, 2014, 592, 4417-4429). Briefly, intact rat soleus muscles were dissected out from 12-14 week old Wistar rats and placed in an experimental chamber that was perfused with a standard Krebs Ringer solution containing 122 mM NaCl, 25 mM NaHCO3, 2.8 mM KCl, 1.2 mM KH2PO4, 1.2 mM MgSO4, 1.3 mM CaCl2, 5.0 mM D-glucose. During experiments, the solution was kept at approx. 30° C. and continuously equilibrated with a mixture of 95% O2 and 5% CO2, pH˜7.4. The experimental chamber was placed in Nikon upright microscope that was used to visualize individual muscle fibres and the three electrodes (glass pipettes filled with 2 M potassium citrate). For Gm measurements, the electrodes were inserted into the same fibre with known inter-electrode distances of 0.35-0.5 mm (V1-V2, X1) and 1.1-1.5 mm (V1-V3, X3) (FIG. 1A). The membrane potential of the impaled muscle fibre was recorded by all electrodes. Two of the electrodes were furthermore used to inject 50 ms current pulses of −30 nA. […] The steady state voltage deflection at each distance was divided by the magnitude of current injected (−30 nA) and the resulting transfer resistances were plotted against inter-electrode distance and the data was fitted to a mono-exponential function from which Gm could be calculated using linear cable theory (FIG. 1B).
To establish a dose response relationship, Gm was first determined in 10 muscle fibres in the absence of compound and then at four increasing compound concentrations with Gm determinations in 5-10 fibres at each concentration. The average Gm values at each concentration were plotted against compound concentration and the data was fitted to sigmoidal function to obtain an EC50 value (FIG. 1C).

[1] = test system: isolated rat soleus muscles; test: Measurement of force in an in vitro model: isolated rat soleus nerve-muscle preparation with tubocurarine; details: Rattus norvegicus, 40 min; 50 μM test compound, after 40 mins of compound exposure; 115 nM tubocurarine for 90 mins; read-out: Point increase (%) of initial force that was restored
Method: FIG. 2. […] Force traces from a representative muscle stimulated to contract in 1) control condition before addition of neuromuscular blocking agent, 2) the force response to stimulation after 90 minutes incubation with Tubocurarine. […] The traces presented in panel A (1, 2, 3), correspond to the dotted lines in panel B, respectively.
Recovery of force is quantified as the percentage of the force prior to tubocurarine that is recovered by the compound.
The current disclosure relates to compounds that inhibit CIC-1 ion channels and increase muscle excitability and thereby improve muscle function in clinical conditions where muscle activation is failing. Such conditions result in loss of contractile function of skeletal muscle, weakness and excessive fatigue. In this series of experiments the compounds were tested for their ability to restore contractile function of isolated rat muscle when the neuromuscular transmission had been compromised akin to neuromuscular disorders.
Experimentally, soleus muscles from 4-5 week old rats were isolated with the motor nerve remaining attached. The nerve-muscle preparations were mounted in experimental setups that enabled electrical stimulation of the motor nerve. Stimulation of the motor nerve led to activation of the muscle fibres and ensuing force production that was recorded. The nerve-muscle preparations were also in these experiments incubated in the standard Krebs Ringer (see example 5) and the solution was heated to 30° C. and continuously equilibrated with a mixture of 95% O2 and 5% CO2, pH˜7.4.
After mounting the nerve-muscle preparation in the experimental setup, the contractile function of the muscle was initially assessed under the control conditions (FIG. 2A). […] The experimental condition mimics the failing neuromuscular transmission in a range of neuromuscular disorders. After addition of tubocurarine the contractile force declined over the next 90 mins to 10-50% of the control force. 50 μM of the test compound was then added and the contractile force recovered despite the continued presence of tubocurarine. To quantify the ability of the compound to restore force the percentage of the initial force that was restored was determined after 40 mins of compound exposure (FIG. 2B) and the point increase is reported in Table 3.

T1 sequence (P35523 whole entry, canonical isoform): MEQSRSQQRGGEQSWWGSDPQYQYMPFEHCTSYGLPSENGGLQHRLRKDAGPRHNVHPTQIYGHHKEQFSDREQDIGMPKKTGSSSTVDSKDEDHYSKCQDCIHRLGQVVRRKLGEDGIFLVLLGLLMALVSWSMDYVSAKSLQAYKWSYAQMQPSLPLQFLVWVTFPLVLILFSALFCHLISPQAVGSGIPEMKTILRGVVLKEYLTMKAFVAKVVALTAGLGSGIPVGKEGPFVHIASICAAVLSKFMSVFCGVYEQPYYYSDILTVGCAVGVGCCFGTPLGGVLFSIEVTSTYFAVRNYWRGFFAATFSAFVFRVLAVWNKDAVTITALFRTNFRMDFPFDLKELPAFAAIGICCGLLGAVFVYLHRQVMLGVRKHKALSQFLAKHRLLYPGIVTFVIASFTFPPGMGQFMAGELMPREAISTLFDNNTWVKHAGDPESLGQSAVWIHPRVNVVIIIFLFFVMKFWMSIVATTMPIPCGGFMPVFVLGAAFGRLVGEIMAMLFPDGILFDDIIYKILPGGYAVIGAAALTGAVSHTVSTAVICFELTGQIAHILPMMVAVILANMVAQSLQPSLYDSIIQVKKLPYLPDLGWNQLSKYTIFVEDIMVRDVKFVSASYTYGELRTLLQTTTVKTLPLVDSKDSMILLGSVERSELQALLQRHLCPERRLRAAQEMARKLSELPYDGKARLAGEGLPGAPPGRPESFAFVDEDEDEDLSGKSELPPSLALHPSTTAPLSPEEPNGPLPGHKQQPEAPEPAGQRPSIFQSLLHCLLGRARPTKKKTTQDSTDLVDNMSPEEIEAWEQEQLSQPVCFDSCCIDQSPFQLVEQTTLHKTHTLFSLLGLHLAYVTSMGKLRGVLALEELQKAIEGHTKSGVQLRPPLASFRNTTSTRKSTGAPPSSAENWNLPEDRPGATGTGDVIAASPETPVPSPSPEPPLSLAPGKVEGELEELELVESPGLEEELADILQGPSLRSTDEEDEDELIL

Row | ΔV1/2 (difference in half activation voltage of CIC-1 channels) (human CIC-1 channels) [mV] | EC50 (CIC-1 ion channel) [µM] | Compound | activation at 50 µM [1] [%]
1 | 21.2 | – | C[C@H](Oc1ccc(Cl)cc1)C(=O)NC#N [Compound B-4, (2S)-2-(4-chlorophenoxy)-N-cyanopropanamide] | –
2 | 26.6 | 19.6 | CC(C)[C@H](Oc1ccc(Br)cc1)C(=O)NC#N [Compound B-5, (2S)-2-(4-bromophenoxy)-N-cyano-3-methylbutanamide] | –
3 | 13.9 | – | CC[C@H](Oc1ccc(Br)cc1)c1nn[nH]n1 [Compound E-5, 5-[(1S)-1-(4-bromophenoxy)propyl]-2H-1,2,3,4-tetrazole] | –

Row | Compound | ΔV1/2 (difference in half activation voltage of CIC-1 channels) (human CIC-1 channels) [mV] | EC50 (CIC-1 ion channel) [µM] | activation at 50 µM [1] [%]
4 | CC(=O)N1CCC(ONC(=O)[C@H](C)Oc2ccc(Br)cc2)C1 (stereo partly drawn) [Compound C-8] | 10.3 | – | 45
